Test results from patent publication US9056133B2, “Pharmaceutical kit and method for treating cancer” (priority 2012, dated 2015).

Legend:
[1] = system: SW1990 pancreatic tumoral cell line; assay: Combined effect of AV25CDC 5/3 and gemcitabine, MTT cell viability; assay type: cell-based, human; conditions: alone or 24 h after virus at MOI 0.1, MTT six days later
Method: FIG. 8. In vitro synergic effect of AV25CDC 5/3 and gemcitabine in pancreatic tumoral cell line SW1990. Cells were infected with AV25CDC 5/3, at a MOI of 0.1 and 24 hours later gemcitabine was added at concentrations of 0.01 uM and 0.1 uM. Six days later, cell viability was measured using MTT assay.
Pancreatic tumoral cell lines (SW1990) were plated and infected with AV25CDC 5/3, at a MOI of 0.1 and 24 hours later, gemcitabine was added in concentrations of 0.01 uM and 0.1 uM. Six days later, cell viability was measured using MTT assay. There was no decrease on viability if only AV25CDC 5/3 is used at a MOI of 0.1, as well as no decrease was found adding gemcitabine at 0.01 uM. Nevertheless, the combination of both produced a decrease in cell viability of 20%. Using a higher concentration of gemcitabine, of 0.1 uM, on its own produced a decrease in viability of 20%, but combined with AV25CDC 5/3 at a MOI of 0.1, the viability decrease of 40%, considering the control (FIG. 8).

[2] = Biochemical profile and Ca 19.9 tumoral marker of treated animals at day 40; assay type: in vivo, athymic mice N:NIH(S)-nu
Method: Also, to evaluate efficacy of AV25CDC 5/3, on orthotopic tumors caused by SW1990 cells, E4 expression was evaluated at day 40, where an average of […] viral particles were found in the tumor indicating an active replication. On the other hand, biochemical parameters were evaluated at day 40, determining amylase, total and direct bilirubin, alkaline phosphatase (ALP) and aspartate aminotransferase (AST).
Tumoral marker levels Ca 19.9 were also determined.

Nc1ccn([C@@H]2O[C@H](CO)[C@@H](O)C2(F)F)c(=O)n1 [gemcitabine]
cytotoxicity at 0.1 µM ([1]; Homo sapiens, gemcitabine 0.1 uM, vs control, read-out: decrease in cell viability): 20%
decrease in cell viability ([1]; gemcitabine 0.01 uM): no decrease
ALP ([2]; average ± SD, day 40): 119.3 ± 25 U/L
Amylase ([2]; average ± SD, day 40): 1151 ± 386 U/L
Direct bilirubin ([2]; average ± SD, day 40): 0.14 ± 0.02 mg/dL
GOT (AST) ([2]; average ± SD, day 40): 280 ± 64 U/L
GPT (ALT) ([2]; average ± SD, day 40): 47 ± 17 U/L
Total Bilirubin ([2]; average ± SD, day 40): 0.78 ± 0.05 mg/dL
Ca 19.9 ([2]; tumoral marker, individual samples, day 40 after injection of virus): 27940 U/ml
